Consider 25 compounds from patent US9475817B2 (BRISTOL-MYERS SQUIBB COMPANY, priority 2012, dated 2016).

The target of one test is CK1ε (Homo sapiens (Human), UniProt P49674). Put plainly: CK1ε kinase assay (Caliper LabChip, fluoresceinated peptide substrate). The class given is biochemical. To be noted: 200 pM CK1ε, 50 μM ATP, 1.5 μM peptide substrate, 22 hours room temperature. As to the method: (§1) CK1ε and CK1δ Kinase Assays
(§2) The kinase assay was performed in V-bottom 384-well plates. […] The reaction was incubated at room temperature for 22 hours and terminated by adding 45 μl of 35 mM EDTA to each sample. […] Compounds were dissolved at 10 mM in dimethylsulfoxide (DMSO) and evaluated at eleven concentrations. IC50 values were derived by non-linear regression analysis.

For another test, the target named is CK1δ (Homo sapiens (Human), UniProt P48730). Put plainly: CK1δ kinase assay (Caliper LabChip, fluoresceinated peptide substrate). Format: biochemical. The note with it: 200 pM CK1δ, 50 μM ATP, 1.5 μM peptide substrate, 22 hours room temperature. As to the method: as §1, §2

Counter-ions that a name gives are not always drawn.

Sequence of CK1ε (P49674 whole entry): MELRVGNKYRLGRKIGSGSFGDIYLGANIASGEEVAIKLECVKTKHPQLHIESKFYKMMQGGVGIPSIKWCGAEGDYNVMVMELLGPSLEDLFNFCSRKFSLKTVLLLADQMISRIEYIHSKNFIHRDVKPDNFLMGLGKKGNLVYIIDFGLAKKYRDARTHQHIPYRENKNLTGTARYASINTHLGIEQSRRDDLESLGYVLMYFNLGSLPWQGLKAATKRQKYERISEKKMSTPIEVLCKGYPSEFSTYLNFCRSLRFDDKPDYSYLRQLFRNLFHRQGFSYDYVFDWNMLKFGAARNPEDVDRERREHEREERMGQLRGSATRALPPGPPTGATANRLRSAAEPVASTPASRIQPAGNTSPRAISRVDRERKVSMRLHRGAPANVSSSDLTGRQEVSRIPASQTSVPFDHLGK
Sequence of CK1δ (P48730 whole entry): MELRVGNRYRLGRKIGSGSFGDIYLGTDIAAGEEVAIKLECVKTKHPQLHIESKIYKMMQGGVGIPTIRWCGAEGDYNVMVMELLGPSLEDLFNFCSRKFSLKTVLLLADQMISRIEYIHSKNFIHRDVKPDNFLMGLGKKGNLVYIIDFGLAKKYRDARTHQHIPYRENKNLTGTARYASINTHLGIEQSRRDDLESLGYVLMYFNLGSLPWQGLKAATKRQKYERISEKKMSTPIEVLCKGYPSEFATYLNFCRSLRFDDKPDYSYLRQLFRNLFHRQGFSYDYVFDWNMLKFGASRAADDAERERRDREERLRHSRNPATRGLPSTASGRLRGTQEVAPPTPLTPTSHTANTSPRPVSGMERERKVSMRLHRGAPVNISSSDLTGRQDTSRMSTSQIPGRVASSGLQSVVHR

As to `Cn1cc(-c2ccc3nc(NC(=O)c4ccncn4)cn3n2)c(-c2ccc(F)cc2)n1` [Compound 38, N-(6-(3-(4-fluorophenyl)-1-methyl-1H-pyrazol-4-yl)imidazo[1,2-b]pyridazin-2-yl)pyrimidine-4-carboxamide], the IC50 (in general, the concentration at which inhibition is half-maximal) came out at 43.4 nM against CK1ε and 10.7 nM against CK1δ.
For `CCc1ccc(C(=O)Nc2cn3nc(-c4cn(C)nc4-c4ccc(F)cc4)ccc3n2)nc1` [Compound 76, 5-ethyl-N-(6-(3-(4-fluorrophenyl)-1-methyl-1H-pyrazol-4-yl)imidazo[1,2-b]pyridazin-2-yl)picolinamide] the same measures were 64 nM and 11.9 nM.
For `Cc1c[nH]nc1C(=O)Nc1cn2nc(-c3cn(C)nc3-c3ccc(F)cc3)ccc2n1` [Compound 34, N-(6-(3-(4-fluorophenyl)-1-methyl-1H-pyrazol-4-yl)imidazo[1,2-b]pyridazin-2-yl)-4-methyl-1H-pyrazol-3-carboxamide] the same measures were 18.7 nM and 3.6 nM.
For `Cn1cc(-c2ccc3nc(NC(=O)c4cnn(C)c4Cl)cn3n2)c(-c2ccc(F)cc2)n1` [Compound 60, 5-chloro-N-(6-(3-(4-fluorophenyl)-1-methyl-1H-pyrazol-4-yl)imidazo[1,2-b]pyridazin-2-yl)-1-methyl-1H-pyrazole-4-carboxamide] the same measures were 13.1 nM and 5.5 nM.
Turning to `Cn1nc(-c2ccc(F)cc2)c(-c2ccc3nc(NC(=O)c4ccncc4)cn3n2)c1C1CCOCC1` [Compound 197, N-(6-(3-(4-Fluorophenyl)-1-methyl-5-(tetrahydro-2H-pyran-4-yl)-1H-pyrazol-4-yl)imidazo[1,2-b]pyridazin-2-yl)isonicotinamide], the IC50 on CK1ε was 1.8 nM; against CK1δ, 0.3 nM.
The corresponding values for `Cc1nc(-c2ccncc2)sc1C(=O)Nc1cn2nc(-c3c(-c4ccc(F)cc4)nn(C)c3C3CCN(CC(N)=O)CC3)ccc2n1` [Compound 184, N-(6-(5-(1-(2-Amino-2-oxoethyl)piperidin-4-yl)-3-(4-fluorophenyl)-1-methyl-1H-pyrazol-4-yl)imidazo[1,2-b]pyridazin-2-yl)-4-methyl-2-(pyridin-4-yl)thiazole-5-carboxamide] are 1.2 nM and 0.3 nM.
As for `Cn1nc(-c2ccc(F)cc2)c(-c2ccc3nc(NC(=O)c4cccc(-c5cccnc5)c4)cn3n2)c1C1CCOCC1` [Compound 199, N-(6-(3-(4-Fluorophenyl)-1-methyl-5-(tetrahydro-2H-pyran-4-yl)-1H-pyrazol-4-yl)imidazo[1,2-b]pyridazin-2-yl)-3-(pyridin-3-yl)benzamide], the IC50 is 1.9 nM on CK1ε and 0.2 nM at CK1δ.
The corresponding values for `COCC(=O)N1CCC(c2c(-c3ccc4nc(NC(=O)c5ccnc(F)c5)cn4n3)c(-c3ccc(F)cc3)nn2C)CC1` [Compound 152, 2-fluoro-N-(6-(3-(4-fluorophenyl)-5-(1-(2-methoxyacetyl)piperidin-4-yl)-1-methyl-1H-pyrazol-4-yl)imidazo[1,2-b]pyridazin-2-yl) isonicotinamide] are 2.7 nM and 0.3 nM.
For `Cn1cc(-c2ccc3nc(NC(=O)c4cc(Cl)ccc4F)cn3n2)c(-c2ccc(F)cc2)n1` [Compound 47, 5-chloro-2-fluoro-N-(6-(3-(4-fluorophenyl)-1-methyl-1H-pyrazol-4-yl)imidazo[1,2-b]pyridazin-2-yl)benzamide] the same measures were 19.9 nM and 5.2 nM.
For `Cc1c(NC(=O)c2ccccc2)nc2ccc(-c3cn(C)nc3-c3ccc(F)cc3)nn12` [Compound 195, N-(6-(3-(4-Fluorophenyl)-1-methyl-1H-pyrazol-4-yl)-3-methylimidazo[1,2-b]pyridazin-2-yl)benzamide, 2 TFA] the same measures were 137 nM and 54 nM.
Turning to `Cc1nc(-c2cccnc2)sc1C(=O)Nc1cn2nc(-c3c(-c4ccc(F)cc4)nn(C)c3C3CCN(CCC(F)(F)F)CC3)ccc2n1` [Compound 177, N-(6-(3-(4-fluorophenyl)-1-methyl-5-(1-(3,3,3-trifluoropropyl)piperidin-4-yl)-1H-pyrazol-4-yl)imidazo[1,2-b]pyridazin-2-yl)-4-methyl-2-(pyridin-3-yl)thiazole-5-carboxamide], the IC50 came out at 12.2 nM at CK1ε and 0.7 nM against CK1δ.
For `Cn1nc(-c2ccc(F)cc2)c(-c2ccc3nc(NC(=O)c4ccnc(F)c4)cn3n2)c1N1CCN(CCC#N)CC1` [Compound 125, N-(6-(5-(4-(2-Cyanoethyl)piperazin-1-yl)-3-(4-fluorophenyl)-1-methyl-1H-pyrazol-4-yl)imidazo[1,2-b]pyridazin-2-yl)-2-fluoroisonicotinamide], the values for the IC50 on CK1ε and on CK1δ were 4.6 nM and 0.6 nM, respectively.
The corresponding values for `Cn1nc(-c2ccc(F)cc2)c(-c2ccc3nc(NC(=O)c4ccnc(F)c4)cn3n2)c1N1CCN(C[C@H](O)C(F)(F)F)CC1` [Compound 128, (S)-2-Fluoro-N-(6-(3-(4-fluorophenyl)-1-methyl-5-(4-(3,3,3-trifluoro-2-hydroxypropyl)piperazin-1-yl)-1H-pyrazol-4-yl)imidazo[1,2-b]pyridazin-2-yl)isonicotinamide] are 10.6 nM and 1.5 nM.
For `CCN(CC)Cc1ccc(C(=O)Nc2cn3nc(-c4cn(C)nc4-c4ccc(F)cc4)ccc3n2)cc1` [Compound 31, 4-((diethylamino)methyl)-N-(6-(3-(4-fluorophenyl)-1-methyl-1H-pyrazol-4-yl)imidazo[1,2-b]pyridazin-2-yl)benzamide] the same measures were 6.3 nM and 3.9 nM.
The corresponding values for `Cn1nc(-c2ccc(F)cc2)c(-c2ccc3nc(NC(=O)c4ccncc4)cn3n2)c1C1CCN(C2CCOCC2)CC1` [Compound 167, N-(6-(3-(4-fluorophenyl)-1-methyl-5-(1-(tetrahydro-2H-pyran-4-yl)piperidin-4-yl)-1H-pyrazol-4-yl)imidazo[1,2-b]pyridazin-2-yl)isonicotinamide] are 7.7 nM and 2.4 nM.
As to “2-fluoro-N-(6-(3-(4-fluorophenyl)-1- methyl-5-morpholino-1H-pyrazol-4-yl) imidazo[1,2-b]pyridazin-2-yl) isonicotinamide [Compound 144]”, the IC50 on CK1ε stood at 3.7 nM; against CK1δ, 0.74 nM.
For `Cn1cc(-c2ccc3nc(NC(=O)c4ccc(OCC(F)(F)F)nc4)cn3n2)c(-c2ccc(F)cc2)n1` [Compound 68, N-(6-(3-(4-fluorrophenyl)-1-methyl-1H-pyrazol-4-yl)imidazo[1,2-b]pyridazin-2-yl)-6-(2,2,2-trifluoroethoxy)nicotinamide] the same measures were 28.1 nM and 4.4 nM.
For `Cn1cc(-c2ccc3nc(NC(=O)C4CCC4)cn3n2)c(-c2ccc(F)cc2)n1` [Compound 89, N-(6-(3-(4-fluorophenyl)-1-methyl-1H-pyrazol-4-yl)imidazo[1,2-b]pyridazin-2-yl)cyclobutanecarboxamide] the same measures were 25.8 nM and 7.1 nM.
The corresponding values for `O=C(Nc1cn2nc(-c3cn(C4CC4)nc3-c3ccc(F)cc3)ccc2n1)c1ccnc(F)c1` [Compound 104, N-(6-(1-cyclopropyl-3-(4-fluorophenyl)-1H-pyrazol-4-yl)imidazo[1,2-b]pyridazin-2-yl)-2-fluoroisonicotinamide] are 15.2 nM and 3.2 nM.
In the case of `O=C(Nc1cn2nc(-c3cn(C4CC4)nc3-c3ccc(F)cc3)ccc2n1)c1ccncc1` [Compound 102, N-(6-(1-Cyclopropyl-3-(4-fluorophenyl)-1H-pyrazol-4-yl)imidazo[1,2-b]pyridazin-2-yl)isonicotinamide], the IC50 came to 9.9 nM at CK1ε and 3 nM at CK1δ.
The corresponding values for `Cn1cc(-c2ccc3nc(NC(=O)c4ccccc4F)cn3n2)c(-c2ccc(F)cc2)n1` [Compound 20, 2-fluoro-N-(6-(3-(4-fluorophenyl)-1-methyl-1H-pyrazol-4-yl)imidazo[1,2-b]pyridazin-2-yl)benzamide] are 9.2 nM and 4.3 nM.
For `CN(C)c1ccc(C(=O)Nc2cn3nc(-c4cn(C)nc4-c4ccc(F)cc4)ccc3n2)cn1` [Compound 66, 6-(dimethylamino)-N-(6-(3-(4-fluorophenyl)-1-methyl-1H-pyrazol-4-yl)imidazo[1,2-b]pyridazin-2-yl)nicotinamide] the same measures were 6.6 nM and 2.8 nM.
For `Cc1nc(-c2cccnc2)sc1C(=O)Nc1cn2nc(-c3c(-c4ccc(F)cc4)nn(C)c3C3CCNCC3)ccc2n1` [Compound 174, N-(6-(3-(4-Fluorophenyl)-1-methyl-5-(piperidin-4-yl)-1H-pyrazol-4-yl)imidazo[1,2-b]pyridazin-2-yl)-4-methyl-2-(pyridin-3-yl)thiazole-5-carboxamide] the same measures were 1.8 nM and 2.5 nM.
As to `Cn1nc(-c2ccc(F)cc2)c(-c2ccc3nc(NC(=O)c4ccnc(F)c4)cn3n2)c1C1CCN(Cc2ccon2)CC1` [Compound 150, 2-Fluoro-N-(6-(3-(4-fluorophenyl)-5-(1-(isoxazol-3-ylmethyl)piperidin-4-yl)-1-methyl-1H-pyrazol-4-yl)imidazo[1,2-b]pyridazin-2-yl)isonicotinamide], the IC50 on CK1ε was found to be 1 nM; against CK1δ it was 1.1 nM.
The corresponding values for `Cn1cc(-c2ccc3nc(NC(=O)c4ccc(C#N)nc4)cn3n2)c(-c2ccc(F)cc2)n1` [Compound 53, 6-cyano-N-(6-(3-(4-fluorophenyl)-1-methyl-1H-pyrazol-4-yl)imidazo[1,2-b]pyridazin-2-yl)nicotinamide] are 21.4 nM and 5.8 nM.
